The data set is described as follows: Observation of the crystals using a scanning electron microscope; measurement of the crystal thickness. The format is physicochemical. The conditions noted are these: scanning electron microscope image. On the procedure: The ascorbic acid crystals contained in the ascorbic acid dispersion material of the present invention obtained in Examples 1 to 3 were observed using a scanning electron microscope. 3. 5 mL of the ascorbic acid dispersion material of the present invention obtained in Examples 1 to 3 as an analyte and 0.5 g of commercially available ascorbic acid crystal powder were both infused into 20 mL of the dispersion medium prepared in 2, lightly shaken, and mixed. 6. The operations of 4 and 5 were further carried out to remove the solvent component of the ascorbic acid dispersion material of the present invention, following which the operation of 4 was further carried out to precipitate particles of the ascorbic acid, and remove the supernatant, and the particles were dried at a low temperature to obtain particulate powder. […]

Take `O=C1O[C@H]([C@@H](O)CO)C(O)=C1O` [ascorbic acid crystal powder, ascorbic acid]: the Crystal shape result was “indeterminate crystal shape”.
